In one series the target is T1, FLT-3 (Homo sapiens, UniProt P36888).
T1 sequence (P36888 27-993): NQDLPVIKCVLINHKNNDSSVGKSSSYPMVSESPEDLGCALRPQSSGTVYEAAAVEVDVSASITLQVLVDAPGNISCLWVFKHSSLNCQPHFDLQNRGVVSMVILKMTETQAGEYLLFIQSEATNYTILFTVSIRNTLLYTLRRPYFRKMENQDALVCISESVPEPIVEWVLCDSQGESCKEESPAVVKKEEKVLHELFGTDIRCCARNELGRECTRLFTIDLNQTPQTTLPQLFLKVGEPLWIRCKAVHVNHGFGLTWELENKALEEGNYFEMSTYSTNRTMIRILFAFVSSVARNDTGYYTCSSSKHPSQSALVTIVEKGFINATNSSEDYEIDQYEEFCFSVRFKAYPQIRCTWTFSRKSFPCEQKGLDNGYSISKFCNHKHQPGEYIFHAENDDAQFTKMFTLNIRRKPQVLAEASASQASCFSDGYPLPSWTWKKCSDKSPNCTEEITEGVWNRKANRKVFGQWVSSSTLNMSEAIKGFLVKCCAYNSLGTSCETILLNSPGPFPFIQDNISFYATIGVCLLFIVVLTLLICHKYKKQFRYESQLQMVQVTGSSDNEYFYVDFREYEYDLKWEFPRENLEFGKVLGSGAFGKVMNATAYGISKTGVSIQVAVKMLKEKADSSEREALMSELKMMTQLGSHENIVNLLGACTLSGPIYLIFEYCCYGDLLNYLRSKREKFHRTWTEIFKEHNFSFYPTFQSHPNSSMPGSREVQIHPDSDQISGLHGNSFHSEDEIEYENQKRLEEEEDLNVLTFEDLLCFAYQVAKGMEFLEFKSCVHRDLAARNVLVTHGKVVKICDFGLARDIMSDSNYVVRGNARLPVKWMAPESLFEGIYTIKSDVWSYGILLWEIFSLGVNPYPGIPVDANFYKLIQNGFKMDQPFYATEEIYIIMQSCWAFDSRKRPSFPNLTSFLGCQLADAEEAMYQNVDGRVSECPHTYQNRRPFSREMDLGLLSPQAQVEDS
Put plainly: radioisotope-based P81 filter-binding assay, FLT-3 kinase. It counts as biochemical. The following applies: for IC50: averaged from two independent dose-response curves, read-out: Enzyme assay IC50 FLT-3. How it is done: (§1) Compounds of formula (I)-(IV) were evaluated for abilities in inhibiting protein kinases aurora B and FLT-3 activity using radioisotope-based P81 filter-binding assay (Table 1).

The next series deals with aurora B (Homo sapiens, UniProt Q96GD4). Put plainly: radioisotope-based P81 filter-binding assay, aurora B kinase. The following applies: for IC50: averaged from two independent dose-response curves, read-out: Enzyme assay IC50 Aur B. It counts as biochemical. How it is done: as §1
Sequence of aurora B (Q96GD4 whole entry): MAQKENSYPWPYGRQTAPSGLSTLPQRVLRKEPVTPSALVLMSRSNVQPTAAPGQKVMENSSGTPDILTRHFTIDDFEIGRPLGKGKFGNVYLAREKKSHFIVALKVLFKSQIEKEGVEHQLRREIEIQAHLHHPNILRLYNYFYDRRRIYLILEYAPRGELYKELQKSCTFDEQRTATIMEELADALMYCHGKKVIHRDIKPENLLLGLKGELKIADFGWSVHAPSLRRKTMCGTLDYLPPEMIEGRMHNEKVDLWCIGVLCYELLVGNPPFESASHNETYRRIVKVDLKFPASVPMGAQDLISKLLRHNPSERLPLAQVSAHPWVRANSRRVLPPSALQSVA

Broadly, the IC50 is the concentration that gives 50% inhibition. One may read the melting point as the temperature of the solid-liquid transition. As for `COc1ccc(C(=O)NC(=O)Nc2ccc3c(c2)NC(=O)/C3=C\c2[nH]c(C)c(CCC(=O)N3CCOCC3)c2C)c(F)c1` [D67], the melting point was 248 to 253 °C (dec.). Also, the IC50 at FLT-3 came out at 106 nM. Also, the IC50 on aurora B came out at 16.4 nM.

`CN1CCN(C(=O)Nc2ccc3c(c2)NC(=O)/C3=C\c2ccc[nH]2)C1=O` [D80, (Z)—N-(3-((1H-pyrrol-2-yl)methylene)-2-oxoindolin-6-yl)-3-methyl-2-oxoimidazolidine-1-carboxamide]: the melting point is 267 to 272 °C (dec.). Further, the IC50 on FLT-3 was determined as 70.6 nM. The IC50 at aurora B stood at 1100 nM.

Turning to `O=C1Nc2cc(NC(=O)N3CCN(C4CC4)C3=O)ccc2/C1=C/c1ccc[nH]1` [D81, (Z)—N-(3-((1H-pyrrol-2-yl)methylene)-2-oxoindolin-6-yl)-3-cyclopropyl-2-oxoimidazolidine-1-carboxamide], the melting point was 284 to 289 °C (dec.). Also, the IC50 on FLT-3 came to 1800 nM. Further, the IC50 on aurora B worked out at 19.9 nM.

For `O=C1Nc2cc(NC(=O)N3CCN(C4CC4)C3=O)c(F)cc2/C1=C/c1ccc[nH]1` [D82, (Z)—N-(3-((1H-pyrrol-2-yl)methylene)-5-fluoro-2-oxoindolin-6-yl)-3-cyclopropyl-2-oxoimidazolidine-1-carboxamide], the melting point is greater than 300 °C. On FLT-3, the IC50 is 3330 nM. Also, the IC50 at aurora B came to 10.7 nM.

Consider `O=C1Nc2cc(NC(=O)N3CCN(c4ccccc4)C3=O)ccc2/C1=C/c1ccc[nH]1` [D83, (Z)—N-(3-((1H-pyrrol-2-yl)methylene)-2-oxoindolin-6-yl)-2-oxo-3-phenylimidazolidine-1-carboxamide], for which the melting point is 294 to 299 °C (dec.). Also, on FLT-3, the IC50 amounted to 359 nM. Also, at aurora B, the IC50 was determined as 17.3 nM.

On to `O=C1Nc2cc(NC(=O)N3CCN(c4ccc(Cl)cc4)C3=O)ccc2/C1=C/c1ccc[nH]1` [D84, (Z)—N-(3-((1H-pyrrol-2-yl)methylene)-2-oxoindolin-6-yl)-3-(4-chlorophenyl)-2-oxoimidazolidine-1-carboxamide], for which the melting point was greater than 300 °C. Also, the half-inhibitory concentration (IC50) on FLT-3 is 854 nM. In addition, the IC50 on aurora B was greater than 10000 nM.

For the compound `O=C1Nc2cc(NC(=O)N3CCN(c4cccc(Cl)c4)C3=O)ccc2/C1=C/c1ccc[nH]1` [D85, (Z)—N-(3-((1H-pyrrol-2-yl)methylene)-2-oxoindolin-6-yl)-3-(3-chlorophenyl)-2-oxoimidazolidine-1-carboxamide], the melting point is greater than 300 °C. On FLT-3, the IC50 came out at 1790 nM. In addition, the IC50 at aurora B was 14.3 nM.

Regarding `O=C1Nc2cc(NC(=O)N3CCN(c4ccc(Cl)c(Cl)c4)C3=O)ccc2/C1=C/c1ccc[nH]1` [D86, (Z)—N-(3-((1H-pyrrol-2-yl)methylene)-2-oxoindolin-6-yl)-3-(3,4-dichlorophenyl)-2-oxoimidazolidine-1-carboxamide], the melting point is greater than 300 °C. In addition, the IC50 at FLT-3 was found to be 501 nM. For the same compound, the IC50 on aurora B worked out at 145 nM.

As for `O=C1Nc2cc(NC(=O)N3CCN(c4ccc(Cl)c(C(F)(F)F)c4)C3=O)ccc2/C1=C/c1ccc[nH]1` [D87, (Z)—N-(3-((1H-pyrrol-2-yl)methylene)-2-oxoindolin-6-yl)-3-(4-chloro-3-(trifluoromethyl)phenyl)-2-oxoimidazolidine-1-carboxamide], the melting point was greater than 300 °C. The IC50 at FLT-3 worked out at 569 nM. The 50% inhibitory concentration (IC50) on aurora B stood at 1040 nM.

`O=C1Nc2cc(NC(=O)N3CCN(c4ccc(C(F)(F)F)cc4)C3=O)ccc2/C1=C/c1ccc[nH]1` [D88, (Z)—N-(3-((1H-pyrrol-2-yl)methylene)-2-oxoindolin-6-yl)-2-oxo-3-(4-(trifluoromethyl)phenyl)imidazolidine-1-carboxamide] returned a melting point greater than 300 °C. Besides, the IC50 on FLT-3 amounted to 498 nM. The 50% inhibitory concentration (IC50) on aurora B was found to be 824 nM.

The compound `O=C1Nc2cc(NC(=O)N3CCN(c4ccc(F)cc4)C3=O)ccc2/C1=C/c1ccc[nH]1` [D89, (Z)—N-(3-((1H-pyrrol-2-yl)methylene)-2-oxoindolin-6-yl)-3-(4-fluorophenyl)-2-oxoimidazolidine-1-carboxamide] returned a melting point greater than 300 °C. The IC50 at FLT-3 was determined as 74.1 nM. Further, the half-inhibitory concentration (IC50) on aurora B was determined as 37.9 nM.

Broadly, the inhibition is how much of the control response was suppressed. As for `COc1ccc(N2CCN(C(=O)Nc3ccc4c(c3)NC(=O)/C4=C\c3ccc[nH]3)C2=O)cc1` [D91, (Z)—N-(3-((1H-pyrrol-2-yl)methylene)-2-oxoindolin-6-yl)-3-(4-methoxyphenyl)-2-oxoimidazolidine-1-carboxamide], the melting point is 294 to 299 °C (dec.). For the same compound, the inhibition at 1 µM at FLT-3 (compound at 1.0 μM, mean values (n=2), read-out: percent inhibition of enzyme catalytic activity, FLT-3 (numbers in parentheses)) was determined as 26%. In addition, the inhibition at 1 µM on aurora B (compound at 1.0 μM, mean values (n=2), read-out: percent inhibition of enzyme catalytic activity, Aur B (numbers in parentheses)) was determined as 25.3%.

On to `Cc1ccc(N2CCN(C(=O)Nc3ccc4c(c3)NC(=O)/C4=C\c3ccc[nH]3)C2=O)cc1` [D92, (Z)—N-(3-((1H-pyrrol-2-yl)methylene)-2-oxoindolin-6-yl)-2-oxo-3-p-tolylimida-zolidine-1-carboxamide], for which the melting point was greater than 300 °C. For the same compound, the IC50 on FLT-3 came out at 223 nM. Also, the IC50 at aurora B stood at 19.3 nM.

For `CN(C)c1ccc(N2CCN(C(=O)Nc3ccc4c(c3)NC(=O)/C4=C\c3ccc[nH]3)C2=O)cc1` [D93, (Z)—N-(3-((1H-pyrrol-2-yl)methylene)-2-oxoindolin-6-yl)-3-(4-(dimethylamino)-phenyl)-2-oxoimidazolidine-1-carboxamide], the melting point was 279 to 284 °C (dec.). Moreover, the IC50 at FLT-3 was 1220 nM. The IC50 at aurora B turned out to be 24.2 nM.

On to `COc1ccc(N2CCN(C(=O)Nc3ccc4c(c3)NC(=O)/C4=C\c3[nH]c(C)c(C(=O)O)c3C)C2=O)cc1` [D95, (Z)-5-((6-(3-(4-methoxyphenyl)-2-oxoimidazolidine-1-carboxamido)-2-oxoindolin-3-ylidene)methyl)-2,4-dimethyl-1H-pyrrole-3-carboxylic acid], for which the melting point was 267 to 272 °C (dec.). For the same compound, the IC50 at FLT-3 turned out to be 39.4 nM. The IC50 at aurora B came out at 3.7 nM.

As for `Cc1[nH]c(/C=C2\C(=O)Nc3cc(NC(=O)N4CCN(C5CC5)C4=O)ccc32)c(C)c1C(=O)O` [D96, (Z)-5-((6-(3-cyclopropyl-2-oxoimidazolidine-1-carboxamido)-2-oxoindolin-3-ylidene)methyl)-2,4-dimethyl-1H-pyrrole-3-carboxylic acid], the melting point was greater than 300 °C. Further, the IC50 at FLT-3 stood at 217 nM. The IC50 at aurora B was determined as 3.5 nM.

Compound `O=C1Nc2cccc(NC(=O)c3cccn(-c4ccc(F)cc4)c3=O)c2/C1=C/c1ccc[nH]1` [D103, (Z)—N-(3-((1H-pyrrol-2-yl)methylene)-2-oxoindolin-4-yl)-1-(4-fluorophenyl)-2-oxo-1,2-dihydropyridine-3-carboxamide] yielded a melting point greater than 300 °C. Besides, at FLT-3, the IC50 was greater than 1000 nM. In addition, the IC50 on aurora B is greater than 1000 nM.

`O=C1Nc2ccc(NC(=O)c3cccn(-c4ccc(F)cc4)c3=O)cc2/C1=C/c1ccc[nH]1` [D104, (Z)—N-(3-((1H-pyrrol-2-yl)methylene)-2-oxoindolin-5-yl)-1-(4-fluorophenyl)-2-oxo-1,2-dihydropyridine-3-carboxamide] yielded a melting point greater than 300 °C. In addition, the IC50 on FLT-3 was greater than 1000 nM. In addition, at aurora B, the IC50 was greater than 1000 nM.

For `Cn1cccc(C(=O)Nc2ccc3c(c2)NC(=O)/C3=C\c2ccc[nH]2)c1=O` [D116, (Z)—N-(3-((1H-pyrrol-2-yl)methylene)-2-oxoindolin-6-yl)-1-methyl-2-oxo-1,2-dihydropyridine-3-carboxamide], the melting point was greater than 300 °C. Also, the IC50 at FLT-3 was determined as 510 nM. Further, the half-inhibitory concentration (IC50) at aurora B was 102 nM.

Turning to `O=C1Nc2cc(NC(=O)c3cccn(CCO)c3=O)ccc2/C1=C/c1ccc[nH]1` [D117, (Z)—N-(3-((1H-pyrrol-2-yl)methylene)-2-oxoindolin-6-yl)-1-(2-hydroxyethyl)-2-oxo-1,2-dihydropyridine-3-carboxamide], the melting point is 298 °C (dec.). Also, the IC50 on FLT-3 came out at 612 nM. The IC50 at aurora B was 32.5 nM.

As for `O=C1Nc2c(NC(=O)c3cccn(-c4ccc(F)cc4)c3=O)cccc2/C1=C/c1ccc[nH]1` [D118, (Z)—N-(3-((1H-pyrol-2-yl)methylene)-2-oxoindolin-7-yl)-1-(4-fluorophenyl)-2-oxo-1,2-dihydropyridine-3-carboxamide], the melting point is greater than 300 °C. Moreover, the IC50 on FLT-3 is greater than 1000 nM. Moreover, at aurora B, the IC50 is greater than 1000 nM.
